Measurements taken from patent US10695337B2, “Piperidin-4-yl azetidine derivatives as JAK1 inhibitors” (Incyte Corporation, priority 2010, dated 2020).

Target: human JAK1 (a.a. 837-1142)
Test: In vitro JAK kinase assay (HTRF, phosphorylation of a biotinylated peptide), JAK1
Assay type: biochemical
Conditions: measured at 1 mM ATP; JAK2 IC50 / JAK1 IC50
Procedure, shortened: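 Phosphorylation of a biotinylated peptide by purified His-tagged JAK catalytic domains (insect-cell baculovirus expression) ran 1 hr at room temperature. After stopping with EDTA, Eu-Py20 and SA-APC were bound for 40 minutes and HTRF measured.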

Row | SMILES | IC50 Ratio JAK2/JAK1
1 | N#CCC1(n2cc(-c3ncnc4[nH]ccc34)cn2)CN(C2CCN(C(=O)c3ccc(-c4ccc5cccnc5c4)c(F)c3)CC2)C1 [Example 134, {1-[1-(3-fluoro-4-quinolin-7-ylbenzoyl)piperidin-4-yl]-3-[4-(7H-pyrrolo[2,3-d]pyrimidin-4-yl)-1H-pyrazol-1-yl]azetidin-3-yl} acetonitrile] | 6.7
2 | N#CCC1(n2cc(-c3ncnc4[nH]ccc34)cn2)CN(C2CCN(C(=O)c3ccc(-c4ccc5nccn5c4)c(F)c3)CC2)C1 [Example 135, {1-[1-(3-fluoro-4-imidazo[1,2-a]pyridin-6-ylbenzoyl)piperidin-4-yl]-3-[4-(7H-pyrrolo[2,3-d]pyrimidin-4-yl)-1H-pyrazol-1-yl]azetidin-3-yl} acetonitrile] | 7.1
3 | N#CCC1(n2cc(-c3ncnc4[nH]ccc34)cn2)CN(C2CCN(C(=O)c3ccc(-c4nc5ccccc5o4)cc3)CC2)C1 [Example 136, {1-{1-[4-(1,3-benzoxazol-2-yl)benzoyl]piperidin-4-yl}-3-[4-(7H-pyrrolo[2,3-d]pyrimidin-4-yl)-1H-pyrazol-1-yl]azetidin-3-yl}acetonitrile] | 5.6
4 | N#CCC1(n2cc(-c3ncnc4[nH]ccc34)cn2)CN(C2CCN(C(=O)c3ccc(-c4nc5ccccc5o4)c(F)c3)CC2)C1 [Example 137, {1-{1-[4-(1,3-benzoxazol-2-yl)-3-fluorobenzoyl]piperidin-4-yl}-3-[4-(7H-pyrrolo[2,3-d]pyrimidin-4-yl)-1H-pyrazol-1-yl]azetidin-3-yl} acetonitrile] | 6.0
5 | N#CCC1(n2cc(-c3ncnc4[nH]ccc34)cn2)CN(C2CC3CCC(C2)N3C(=O)c2ccc(F)c(F)c2)C1 (stereo not shown) [Example 139, {1-[8-(3,4-difluorobenzoyl)-8-azabicyclo[3.2.1]oct-3-yl]-3-[4-(7H-pyrrolo[2,3-d]pyrimidin-4-yl)-1H-pyrazol-1-yl]azetidin-3-yl}acetonitrile] | 4.4
6 | N#CCC1(n2cc(-c3ncnc4[nH]ccc34)cn2)CN(C2CC3CCC(C2)N3C(=O)c2ccc(C#N)c(F)c2)C1 (stereo not shown) [Example 140, 4-[(3-{3-(cyanomethyl)-3-[4-(7H-pyrrolo[2,3-d]pyrimidin-4-yl)-1H-pyrazol-1-yl]azetidin-1-yl}-8-azabicyclo[3.2.1]oct-8-yl)carbonyl]-2-fluorobenzonitrile] | 5.4
7 | N#CCC1(n2cc(-c3ncnc4[nH]ccc34)cn2)CN(C2CC3CCC(C2)N3C(=O)c2ccc(Cl)c(F)c2)C1 (stereo not shown) [Example 141, {1-[8-(4-chloro-3-fluorobenzoyl)-8-azabicyclo[3.2.1]oct-3-yl]-3-[4-(7H-pyrrolo[2,3-d]pyrimidin-4-yl)-1H-pyrazol-1-yl]azetidin-3-yl}acetonitrile] | 6.2
8 | N#CCC1(n2cc(-c3ncnc4[nH]ccc34)cn2)CN(C2CC3CCC(C2)N3C(=O)c2ccnc(C(F)(F)F)c2F)C1 (stereo not shown) [Example 142, {1-{8-[3-fluoro-2-(trifluoromethyl)isonicotinoyl]-8-azabicyclo[3.2.1]oct-3-yl}-3-[4-(7H-pyrrolo[2,3-d]pyrimidin-4-yl)-1H-pyrazol-1-yl]azetidin-3-yl}acetonitrile] | 7.4
9 | N#CCC1(n2cc(-c3ncnc4[nH]ccc34)cn2)CN(C2CC3CCC(C2)N3C(=O)c2ccc(C(F)(F)F)nc2)C1 (stereo not shown) [Example 143, [3-[4-(7H-pyrrolo[2,3-d]pyrimidin-4-yl)-1H-pyrazol-1-yl]-1-(8-{[6-(trifluoromethyl)pyridin-3-yl]carbonyl}-8-azabicyclo[3.2.1]oct-3-yl)azetidin-3-yl]acetonitrile] | 3.5
10 | CC1CC(N2CC(CC#N)(n3cc(-c4ncnc5[nH]ccc45)cn3)C2)CCN1C(=O)C1CCC(F)(F)CC1 (stereo not shown) [Example 151, {1-{1-[(4,4-difluorocyclohexyl)carbonyl]-2-methylpiperidin-4-yl}-3-[4-(7H-pyrrolo[2,3-d]pyrimidin-4-yl)-1H-pyrazol-1-yl]azetidin-3-yl}acetonitrile] | 5.8
11 | CC1(N2CC(CC#N)(n3cc(-c4ncnc5[nH]ccc45)cn3)C2)CCN(C(=O)c2cccc(F)c2)CC1 [Example 152, {1-[1-(3-Fluorobenzoyl)-4-methylpiperidin-4-yl]-3-[4-(7H-pyrrolo[2,3-d]pyrimidin-4-yl)-1H-pyrazol-1-yl]azetidin-3-yl}acetonitrile] | 4.0
12 | N#CCC1(n2cc(-c3ncnc4[nH]ccc34)cn2)CN(C2CCN(C(=O)Nc3ccccc3OC(F)(F)F)CC2)C1 [Example 158, 4-{3-(cyanomethyl)-3-[4-(7H-pyrrolo[2,3-d]pyrimidin-4-yl)-1H-pyrazol-1-yl]azetidin-1-yl}-N-[2-(trifluoromethoxy)phenyl]piperidine-1-carboxamide] | 12.0
13 | N#CCC1(n2cc(-c3ncnc4[nH]ccc34)cn2)CN(C2CCN(C(=O)Nc3cscc3Br)CC2)C1 [Example 159, N-(4-bromo-3-thienyl)-4-{3-(cyanomethyl)-3-[4-(7H-pyrrolo[2,3-d]pyrimidin-4-yl)-1H-pyrazol-1-yl]azetidin-1-yl}piperidine-1-carboxamide] | 15.0
14 | N#CCC1(n2cc(-c3ncnc4[nH]ccc34)cn2)CN(C2CCN(C(=O)Nc3ccccc3Cl)CC2)C1 [Example 163, N-(2-chlorophenyl)-4-{3-(cyanomethyl)-3-[4-(7H-pyrrolo[2,3-d]pyrimidin-4-yl)-1H-pyrazol-1-yl]azetidin-1-yl}piperidine-1-carboxamide] | 12.0
15 | N#CCC1(n2cc(-c3ncnc4[nH]ccc34)cn2)CN(C2CCN(C(=O)Nc3cccc(C(F)(F)F)c3)CC2)C1 [Example 166, 4-{3-(cyanomethyl)-3-[4-(7H-pyrrolo[2,3-d]pyrimidin-4-yl)-1H-pyrazol-1-yl]azetidin-1-yl}-N-[3-(trifluoromethyl)phenyl]piperidine-1-carboxamide] | 5.5
16 | N#CCC1(n2cc(-c3ncnc4[nH]ccc34)cn2)CN(C2CCN(C(=O)Nc3ccc(C(F)(F)F)cc3)CC2)C1 [Example 167, 4-{3-(cyanomethyl)-3-[4-(7H-pyrrolo[2,3-d]pyrimidin-4-yl)-1H-pyrazol-1-yl]azetidin-1-yl}-N-[4-(trifluoromethyl)phenyl]piperidine-1-carboxamide] | 2.0
17 | Cc1ccc(Cl)cc1NC(=O)N1CCC(N2CC(CC#N)(n3cc(-c4ncnc5[nH]ccc45)cn3)C2)CC1 [Example 168, N-(5-chloro-2-methylphenyl)-4-{3-(cyanomethyl)-3-[4-(7H-pyrrolo[2,3-d]pyrimidin-4-yl)-1H-pyrazol-1-yl]azetidin-1-yl}piperidine-1-carboxamide] | 2.6
18 | N#CCC1(n2cc(-c3ncnc4[nH]ccc34)cn2)CN(C2CCN(C(=O)Nc3ccccc3F)CC2)C1 [Example 169, 4-{3-(cyanomethyl)-3-[4-(7H-pyrrolo[2,3-d]pyrimidin-4-yl)-1H-pyrazol-1-yl]azetidin-1-yl}-N-(2-fluorophenyl)piperidine-1-carboxamide] | 5.5
19 | N#CCC1(n2cc(-c3ncnc4[nH]ccc34)cn2)CN(C2CCN(C(=O)Nc3cccc(C(F)(F)F)c3F)CC2)C1 [Example 170, 4-{3-(cyanomethyl)-3-[4-(7H-pyrrolo[2,3-d]pyrimidin-4-yl)-1H-pyrazol-1-yl]azetidin-1-yl}-N-[2-fluoro-3-(trifluoromethyl)phenyl]piperidine-1-carboxamide] | 6.9
20 | N#CCC1(n2cc(-c3ncnc4[nH]ccc34)cn2)CN(C2CCN(C(=O)Nc3ccc(F)cc3F)CC2)C1 [Example 171, 4-{3-(cyanomethyl)-3-[4-(7H-pyrrolo[2,3-d]pyrimidin-4-yl)-1H-pyrazol-1-yl]azetidin-1-yl}-N-(2,4-difluorophenyl) piperidine-1-carboxamide] | 7.5
21 | N#CCC1(n2cc(-c3ncnc4[nH]ccc34)cn2)CN(C2CCN(C(=O)Nc3cc(F)cc(F)c3F)CC2)C1 [Example 173, 4-{3-(cyanomethyl)-3-[4-(7H-pyrrolo[2,3-d]pyrimidin-4-yl)-1H-pyrazol-1-yl]azetidin-1-yl}-N-(2,3,5-trifluorophenyl)piperidine-1-carboxamide] | 5.7
22 | N#CCC1(n2cc(-c3ncnc4[nH]ccc34)cn2)CN(C2CCN(C(=O)Nc3cc(F)ccc3F)CC2)C1 [Example 174, 4-{3-(cyanomethyl)-3-[4-(7H-pyrrolo[2,3-d]pyrimidin-4-yl)-1H-pyrazol-1-yl]azetidin-1-yl}-N-(2,5-difluorophenyl) piperidine-1-carboxamide] | 7.1
23 | N#CCC1(n2cc(-c3ncnc4[nH]ccc34)cn2)CN(C2CCN(C(=O)Nc3cc(F)cc(F)c3)CC2)C1 [Example 175, 4-{3-(cyanomethyl)-3-[4-(7H-pyrrolo[2,3-d]pyrimidin-4-yl)-1H-pyrazol-1-yl]azetidin-1-yl}-N-(3,5-difluorophenyl) piperidine-1-carboxamide] | 3.6
24 | N#CCC1(n2cc(-c3ncnc4[nH]ccc34)cn2)CN(C2CCN(C(=O)Nc3ccc(F)c(F)c3)CC2)C1 [Example 176, 4-{3-(cyanomethyl)-3-[4-(7H-pyrrolo[2,3-d]pyrimidin-4-yl)-1H-pyrazol-1-yl]azetidin-1-yl}-N-(3,4-difluorophenyl) piperidine-1-carboxamide] | 5.1
25 | N#CCC1(n2cc(-c3ncnc4[nH]ccc34)cn2)CN(C2CCN(C(=O)Nc3cccc(Cl)c3F)CC2)C1 [Example 177, N-(3-chloro-2-fluorophenyl)-4-{3-(cyanomethyl)-3-[4-(7H-pyrrolo[2,3-d]pyrimidin-4-yl)-1H-pyrazol-1-yl]azetidin-1-yl}piperidine-1-carboxamide] | 8.5
